Test results as given in patent publication US20240197666A1, “DITERPENOID COMPOUNDS THAT ACT ON PROTEIN KINASE C (PKC)” (K-Gen Therapeutics, Inc., priority 2021, published 2024).

What was measured:
C1b domain of human PKCα = target: T1, C1b domain of human PKCα (Homo sapiens, UniProt P17252); assay: biochemical; assay type: binding; conditions: 3H-PDBu competition
T1 construct: Genes encoding C1b domains of human PKCα, δ, ε, θ, and PKD1 (PKCμ) were synthesized; made in house; host or cells: E. coli BL21(DE3)

C1b domain of human PKCε = target: T2, C1b domain of human PKCε (Homo sapiens, UniProt Q02156); assay: biochemical; assay type: binding; conditions: 3H-PDBu competition
T2 construct: Genes encoding C1b domains of human PKCα, δ, ε, θ, and PKD1 (PKCμ) were synthesized; made in house; host or cells: E. coli BL21(DE3)
T2 sequence (Q02156 242-292 limits assumed): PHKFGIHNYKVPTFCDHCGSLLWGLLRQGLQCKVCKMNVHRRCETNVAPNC
Outline: (§1)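 Binding is reported as Ki, derived from IC50 using Cheng-Prusoff with the experimentally determined 3H-PDBu Kd of each protein preparation. Tracer displacement from recombinant human GST-C1b (E. coli BL21(DE3)) was read by filter scintillation after 10 min at 37° C plus 20 min on ice.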

C1b domain of human PKCθ = target: T3, C1b domain of human PKCθ (Homo sapiens, UniProt Q04759); assay: biochemical; assay type: binding; conditions: 3H-PDBu competition
T3 construct: Genes encoding C1b domains of human PKCα, δ, ε, θ, and PKD1 (PKCμ) were synthesized; made in house; host or cells: E. coli BL21(DE3)
T3 sequence (Q04759 231-281 limits assumed): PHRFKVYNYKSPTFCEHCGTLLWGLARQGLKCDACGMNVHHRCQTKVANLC
Outline: as §1

A549 cell line = assay: Proliferation of A549 (CellTiter Glo); assay type: cell-based; conditions: Homo sapiens, A549, 96 h, read-out: IC50 μM (A549 Cell Line)
Outline: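 Compound effect on proliferation was read as CellTiter Glo luminescence after 96 h exposure to a 3-fold dilution series (≤0.25% DMSO). A549 cells, which carry activating K-Ras, were plated at 1,000/well one day before dosing. IC50, relative IC50 and maximal inhibition were fitted from % inhibition versus DMSO control.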

[1] = tested on: phosphorylation of PKCμ, PKCδ and Erk1/2 in A549 lung cancer cells; assay: Western blot of activation of PKC and downstream target protein in A549 cells; assay type: cell-based; conditions: 0.3 μM, 30 minutes
Method: According to the methods described in patent (WO/2017/083783) A549 lung cancer cells (˜3 million cells) were seeded in 10 cm tissue culture dishes (or ˜1 million cells in 6 cm dish) and grown overnight. Cells were then treated with different drugs at indicated concentrations for 30 minutes. Cell lysate preparation, protein quantitation, SDS-PAGE, and Western blotting procedures are described (WO/2017/083783). β-actin or Vinculin was used as loading controls. Imagequant LAS4000 (GE) was used to scan membranes if secondary antibodies anti-mouse IgG HRP conjugate or anti-rabbit IgG HRP conjugate (dilutions from 1:2000-1:10000) were used. For ProteinSimple Wes system, manufacture's procedure was followed (ProteinSimple 12-230 kDa Wes Separation Module) for sample preparation, loading, running, and data analysis.
Phosphorylation of these sites has been linked to acute activation or catalytic activity of the PKC isoforms and Erk1/2. High level of phosphorylation indicates strong activation.
A subset of the diterpenoid compounds with good binding affinity to novel PKC isoforms and PKCμ was tested at two different concentrations in A549 cells to assess activation of PKCμ, PKCδ, and Erk1/2 by Western blot analysis. In addition to the phospho-specific antibodies described above, an additional phospho-specific antibody P-PKCδ (S299) (Abcam cat #133456) was also used. This antibody has been shown in the literature (Durgan et al., FEBS Lett. 2007, 581(18):3377-81, Novel phosphorylation site markers of protein kinase C delta activation) to be able to detect activation of PKCδ. K-101 (prostratin, 1 μM) was included as reference compounds.

Panc2.13 (Pancreatic) = assay: Proliferation of Panc2.13; assay type: cell-based; conditions: for IC50: read-out: IC50 Panc2.13 (Pancreatic)
Method: (§2) The diterpenoid compounds were tested in A549, a non-small cell lung cancer cell line harboring a K-Ras activating mutation. Briefly, A549 cells at a density of 1,000 cells/well were seeded in 96-well plates and incubated at 37° C. for 24 hours. A series of different concentrations of compound stocks (500×) were prepared by 3-fold serial dilution in DMSO. These compounds were further diluted in culture media and then added to cells so that the final DMSO concentration was not exceeding 0.25%. After 96 hours of incubation, 50 μL of CellTiter Glo reagent (Promega) was added to each well and luminescence was measured after 10 minutes using EnVision (PerkinElmer). Luminescence from cells treated with DMSO alone was set as Max and % of inhibition was calculated as follows: Inhibition %=(Max-Sample value)/Max×100. Data was analyzed using XL-fit software (ID Business Solutions Ltd.) and IC50, relative IC50, and % of top inhibition was calculated. Some of the compounds in this disclosure were very potent in blocking proliferation of A549 lung cancer cells at low nM range. In addition, potency of inhibiting A549 proliferation correlated well with its binding affinity to PKCs for this series of compounds. In other words, higher affinity binders had stronger inhibitory effects on A549 proliferation. This further support the notion that activation, rather than inhibition, of certain PKC isoforms is required to block proliferation of cancer cells, some of which may harbor K-Ras mutations. This is in sharp contrast to previous literature and common belief that inhibition of PKC is necessary to block cancer cell growth (Kang, 2014, New Journal of Science, 2014:1-36). Data presented here is in agreement with recent findings that many loss-of-function but not gain-of-function mutations of PKC isoforms have been identified in many human cancers (Antal et al., 2015, Cell, 160:489-502).
(§3) The compounds in this disclosure were tested for their potency in blocking proliferation of a few other cancer cells lines, including K-Ras mutant pancreatic cell lines Panc2.13 and KP-4, leukemia cell line HL-60, and lymphoma cell lines Namalwa and Mino. Similar procedures as in Example 67 were followed. Initial cell numbers seeded in 96-well plates were different for different cell lines: 3000 cells/well for Panc2.13; 800-1000 cells/well for KP-4; 5000 cells/well for HL-60; 5000-10000 cells/well for Namalwa and Mino. A ratio of (IC50 of K101)/(IC50 of compound) (data in parenthesis in Table 5) was used to normalize the compound potency from different assay batches to a common comparator K101.

KP-4 (Pancreatic) = assay: Proliferation of KP-4; assay type: cell-based; conditions: read-out: IC50 KP-4 (Pancreatic)
Method: as §2, §3

HL-60 (Leukemia) = assay: Proliferation of HL-60; assay type: cell-based; conditions: for IC50: Homo sapiens, HL-60, read-out: IC50 HL-60 (Leukemia)
Namalwa (Lymphoma) = assay: Proliferation of Namalwa; assay type: cell-based; conditions: for IC50: read-out: IC50 Namalwa (Lymphoma)
Outline: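 Proliferation was measured in the K-Ras mutant pancreatic lines and in HL-60 and Namalwa cells. These were plated at densities set per line and left 24 h before compound was added. After 96 h with serially diluted compound, viability was read by CellTiter Glo and IC50 derived.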

Mino (Lymphoma) = assay: Proliferation of Mino; assay type: cell-based; conditions: for IC50: Homo sapiens, MINO, read-out: IC50 Mino (Lymphoma)
Outline: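 Luminescent ATP read-out (CellTiter Glo) after 96 h compound exposure gave % inhibition relative to DMSO-treated cells, from which IC50 was fitted. Seeding densities were line-specific, from 800 to 10000 cells/well. Potency across batches was normalised to reference compound K101.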

PANC1 cells = assay: Sphere formation assay; assay type: cell-based; conditions: Homo sapiens, PANC-1, read-out: concentration exhibiting at least 50% inhibition on the sphere forming efficiency
Method: A group of diterpenoid compounds of the present disclosure were tested to assess their effects on blocking formation of spheres from cancer cell lines such as PANC1, a K-Ras mutant pancreatic cell line. Briefly, PANC1 cells were harvested, re-suspended as single cell suspensions, counted and seeded into Ultra Low Attachment Culture 96-well plate (Corning, Cat #3474) at 100 cells/well in 100 μl of complete media (with 10% FBS) containing 2% Matrigel (Corning, Cat #354234) and DMSO or compounds. Six replicates per condition were seeded. The seeded cells were placed in the 37° C. tissue culture incubator. 10 μl of low serum containing media (with 0.1% FBS) was added to each well every week. Spheres formed after 3-4 weeks were counted. Sphere forming efficiency was expressed as percentage of # of spheres/ # of cells seeded.

[2] = tested on: NFκB-driven transcription in HeLa-NFκB luciferase reporter cell line; assay: NFκB luciferase reporter assay; conditions: Homo sapiens, HeLa, 16 h, read-out: NFκB-luc HeLa cells EC50 (μM)

| Compound | Ki (C1b domain of human PKCα) | Ki (C1b domain of human PKCε) | Ki (C1b domain of human PKCθ) | IC50 (A549 cell line) | phosphorylation of PKCμ, PKCδ and Erk1/2 [1] | ratio (IC50 of K101)/(IC50 of compound) Panc2.13 (Panc2.13 (Pancreatic)) | IC50 (Panc2.13 (Pancreatic)) | IC50 (KP-4 (Pancreatic)) | ratio (IC50 of K101)/(IC50 of compound) HL-60 (HL-60 (Leukemia)) | IC50 (HL-60 (Leukemia)) | ratio (IC50 of K101)/(IC50 of compound) Namalwa (Namalwa (Lymphoma)) | IC50 (Namalwa (Lymphoma)) | ratio (IC50 of K101)/(IC50 of compound) Mino (Mino (Lymphoma)) | IC50 (Mino (Lymphoma)) | IC50 (PANC1 cells) | EC50 [2] |
| --- | --- | --- | --- | --- | --- | --- | --- | --- | --- | --- | --- | --- | --- | --- | --- | --- |
| CC1=C[C@H]2[C@@]3(O)[C@H](C)C[C@]4(OC(=O)[C@@H](N)CCCCCCc5ccc(C(F)(F)F)cc5)[C@H]([C@@H]3C=C(CO)C[C@]2(O)C1=O)C4(C)C | 60 to 100 nM | 10 to 30 nM | 10 to 30 nM | 0.01 to 0.03 µM |  |  |  |  |  |  |  |  |  |  |  |  |
| CC1=C[C@H]2[C@@]3(O)[C@H](C)C[C@]4(OC(=O)[C@@H](N)CCCc5ccccc5)[C@H]([C@@H]3C=C(CO)C[C@]2(O)C1=O)C4(C)C | 60 to 100 nM |  |  | 0.06 to 0.1 µM | induced high levels of phosphorylation | 3.65 | 200 to 600 nM | 100 to 200 nM | 1.79 | 30 to 60 nM | 1.53 | 30 to 60 nM | 6 | 10 to 30 nM | ≤ 1500 nM | 0.06 to 0.1 µM |
| CC/C=C\C/C=C\C/C=C\C/C=C\C/C=C\C/C=C\CCC(=O)O[C@@]12C[C@@H](C)[C@@]3(O)[C@@H](C=C(CO)C[C@]4(O)C(=O)C(C)=C[C@@H]34)[C@@H]1C2(C)C | 60 to 100 nM | 10 to 30 nM |  | 0.001 to 0.01 µM |  | 157 | 1 to 10 nM | 1 to 10 nM | 80 | 1 to 10 nM | 20.9 | 1 to 10 nM | 82.5 | < 1 nM |  | 0.001 to 0.01 µM |
